Experimental data: patent US10398142B2, “Polycationic amphiphiles as antimicrobial agents” (priority 2013, dated 2019)
Like-named read-outs stand apart in the source and are kept apart here.

Legend:
[1] = test system: Enterococcus faecalis (OG1RF); experiment: Minimum inhibitory concentration (MIC), broth microdilution; assay type: cell-based; details: Table 3; read-out: MIC E. faecalis
In short: (§1)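 Broth microdilution: two-fold serial dilutions (twelve concentrations) mixed 1:1 with overnight cultures diluted to ca. 10^6 cfu/mL in Mueller-Hinton media, incubated statically at 37° C for 72 hours. MIC is lowest concentration with no growth visible to the naked eye, majority of three independent experiments.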

[2] = test system: Escherichia coli (MC4100); experiment: as above; assay type: cell-based; details: Table 3; read-out: MIC E. coli
In short: as §1

[3] = test system: Pseudomonas aeruginosa (PAO1); experiment: as above; assay type: cell-based; details: Table 3; read-out: MIC P. aeruginosa
In short: as §1

[4] = test system: Staphylococcus aureus MSSA (SH1000); experiment: as above; assay type: cell-based
In short: as §1

CA-MRSA (USA300-0114) [5] = experiment: as above; assay type: cell-based, Staphylococcus aureus; details: Table 4; USA300-0114; read-out: MIC CA-MRSA
In short: (§2)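 Two-fold serial dilutions (twelve concentrations) from aqueous stock; inoculum ca. 10^6 cfu/mL in Mueller-Hinton media, static incubation at 37 °C for 72 h. MIC read visually as lowest concentration with no visible growth, majority of three independent experiments.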

HA-MRSA (ATCC 33591) = experiment: as above; assay type: cell-based, Staphylococcus aureus; details: Table 4; ATCC 33591; read-out: MIC HA-MRSA
In short: as §2

[6] = test system: S. aureus (MSSA, SH1000) biofilms; experiment: Minimum biofilm eradication concentration (MBEC), regrowth assay; assay type: cell-based, Staphylococcus aureus; details: Table 5; SH1000
In short: (§3)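 Static 24 h biofilms at 37° C. (BHI for S. aureus, Todd Hewitt for E. faecalis), then 16 h compound exposure, PBS washes and overnight regrowth in fresh media. MBEC is the lowest concentration giving final OD595 below 0.1; four replicates per concentration.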

E. faecalis biofilms = experiment: as above; assay type: cell-based, Enterococcus faecalis; details: Table 5
In short: as §3

[7] = test system: CA-MRSA (USA300-0114) biofilms; experiment: as above; assay type: cell-based, Staphylococcus aureus; details: Table 5; USA300-0114
In short: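 CA-MRSA USA300-0114 biofilms grown statically 24 h at 37 °C in BHI, then exposed to compound for 16 h at 37 °C. After PBS washes, biofilms regrown overnight in fresh media; MBEC is the lowest concentration giving OD595 below 0.1, four replicates per concentration.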

[8] = test system: red blood cells (defibrinated sheep blood); experiment: Hemolysis assay (Lysis20); details: Table 4; concentration at which less than 20% of red blood cells are lysed
In short: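 Defibrinated sheep red blood cells were incubated with compounds serially diluted in PBS, and the suspensions were read by OD. 1% Triton X served as 100% lysis and PBS as 0% lysis. Lysis20 is the concentration (μM) at which less than 20% of cells are lysed.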

[9] = test system: Staphylococcus aureus, Enterococcus faecalis, Escherichia coli and Pseudomonas aeruginosa; experiment: MIC, summary statements over the four bacteria; assay type: cell-based; details: comparison of MIC values
Protocol: The term “minimum inhibitory concentration (MIC)” means the lowest concentration of an antimicrobial agent that will inhibit the visible growth of a microorganism after overnight incubation. MIC values against bacteria, for example, the Gram-positive Staphylococcus aureus and Enterococcus faecalis and the Gram-negative Escherichia coli and Pseudomonas aeruginosa were determined by standard methods. See also P. A. Wayne, Methods for Dilution Antimicrobial Tests for Bacteria that Grow Aerobically; Approved Standard, Ninth Edition, 2012, CLSI Document M07-A9, Vol. 32 No. 2.
With nearly three-dozen amphiphiles varying in structure and cationic nature synthesized, minimum inhibitory concentration (MIC) values against the Gram-positive Staphylococcus aureus and Enterococcus faecalis and the Gram-negative Escherichia coli and Pseudomonas aeruginosa were determined by standard methods. […] The commercially available antibacterial agent benzalkonium chloride (benzyldimethyldodecylammonium chloride, Bn,12) was tested for comparison. The broth microdilution for determining MIC values was performed as previously reported.
MIC variation mostly hinged on the length of alkyl chain, where the dodecyl chain was generally found to be optimal. […]

CA-MRSA (USA300-0114) [10] = experiment: Resistance development, liquid culture serial passage; assay type: cell-based, Staphylococcus aureus; details: over 24 days (>500 generations)
Protocol: (§4) Resistance development such as liquid culture resistance assay was performed. […] Once a day, an aliquot of bacterial culture from the highest concentration allowing bacterial growth was diluted 1:10,000 in fresh media containing a range of antibacterial compound. This process was repeated for several hundred generations.
(§5) Resistance Development Assays: Liquid culture serial passage protocols, in which bacteria are successively grown at sub-lethal concentrations of antibacterial compound, were employed.

MSSA (SH1000) = experiment: as above; assay type: cell-based, Staphylococcus aureus; details: over 24 days (>500 generations)
Protocol: as §4, §5

[11] = Table 3, read-out: MIC S. aureus
[12] = Table 4, SH1000, read-out: MIC MSSA

SMILES | MIC [1] [µM] | MIC [2] [µM] | MIC [3] [µM] | MIC [4, 11] [µM] | MIC [4, 12] [µM] | MIC (CA-MRSA (USA300-0114) [5]) [µM] | MIC (HA-MRSA (ATCC 33591)) [µM] | MBEC MSSA [6] [µM] | MBEC E. faecalis (E. faecalis biofilms) [µM] | MBEC CA-MRSA [7] [µM] | Lysis20 [8] [µM] | fold more bioactive than (N4-12,0,0,0) [9] | resistance in serial passage, CA-MRSA (USA300-0114) (CA-MRSA (USA300-0114) [10]) | resistance in serial passage, MSSA (MSSA (SH1000))
CCCCCCCCCCCC[N+](C)(C)CCN(C)CCN(C)CC[N+](C)(C)CCCCCCCCCCCC.[Br-].[Br-] [N4-12,0,0,12] | 1 | 1 | 4 | 1 | 1 | 1 | 1 | 50 | 75 ± 25 | 100 | 4 | about 8 fold | – | –
C=CC[N+](C)(CC[N+](C)(C)CCCCCCCCCCCC)CC[N+](C)(CC=C)CC[N+](C)(C)CCCCCCCCCCCC.[Br-].[Br-].[Br-].[Br-] (centres unmarked) [N4-12,3A,3A,12] | 1 | 1 | 2 | 1 | 1 | 1 | 0.5 | 100 | 200 | 150 ± 50 | 8 | about 8 fold | No resistance was observed | No resistance was observed
